Experiment: Thermal conversion of 2′,3′-substituted ATP to unsubstituted ATP in ligase buffer at 95° C. (HPLC)
Format: physicochemical
Conditions: for Concentration of unsubstituted ATP: 1 mM 2′,3′-substituted ATP
Experimental: The reactions were monitored by analysis of the aliquot of incubated mixture by reverse-phase and anion-exchange HPLC.

CC(C)(C)OCCO[C@@H]1[C@H](OCCOC(C)(C)C)[C@@H](COP(=O)(O)OP(=O)(O)OP(=O)(O)O)O[C@H]1n1cnc2c(N)ncnc21 [2′,3′-TBE-substituted ATP, 2′,3′-O-bis-[2-(tert-butoxy)]ethyl-adenosine-5′-triphosphate]
Concentration of unsubstituted ATP (ligase buffer pH 7.5, 5 min): 569 µM
Concentration of unsubstituted ATP (ligase buffer pH 7.5, 10 min): 857 µM
Concentration of unsubstituted ATP (ligase buffer pH 7.5, 20 min): 970 µM
cofactor molecules converted to the unmodified ATP (2 min, ligation buffer): about 20%
conversion to unmodified ATP (20 min, ligation buffer): more than 85%

Reference: patent publication US20140038181A1, “CHEMICALLY SUBSTITUTED THERMOSENSITIVE PROBES AND COFACTORS FOR HOT START LIGATION” (TRILINK BIOTECHNOLOGIES, priority 2011, published 2014)
